Measurements from publication PMC11799252, “The differentiation state of small intestinal organoid models influences prediction of drug-induced toxicity” (Frontiers in Cell and Developmental Biology, 2025).
Where two headings read alike, the source gives them in different places.

Assays:
[1] = clinical plasma, cited from earlier work
[2] = tested on: proliferative duodenum organoids; test: Cell viability (Cell Titer Glo 3D, ATP) in proliferative organoid model; details: for IC50: Homo sapiens, 72 h, read-out: IC50 (μM) Prolif.
Experimental: (§1) Organoids were grown for 7–10 days then dissociated using TrypLE™ Express Enzyme, as described above. Single cells were resuspended in BME at a density of 5–6 × 10^5 cells/mL on ice and plated as 5 μL/well domes in clear-bottom 96-well plates (Corning). The domes were cured for 10–15 min at 37°C and overlaid with 100 μL of growth media replaced every 2–3 days.
(§2) Compounds were administered after 5–6 days in growth medium for proliferative organoids or after an additional 4 days in differentiation medium for differentiated organoids. Organoid media was replaced with 90 μL fresh media immediately prior to dosing. Compounds were diluted in growth or differentiation medium and administered as a 5-fold dilution series at 5-8 concentrations with corresponding 0.5% DMSO vehicle control (1% DMSO for aspirin), at 10 μL/well in triplicate. […] After 3 days of treatment, cultures were imaged by brightfield microscopy (THUNDER DMi8 inverted light microscope with a 2.5× objective and a DFC9000 GTC camera (Leica)). Wells were precluded from analysis on visual quality control (i.e., organoid loss due to BME degradation/dislodging or insufficient seeding density) congruent with cytotoxicity analysis. An equal volume of Cell Titer Glo 3D Reagent (Promega) was added to each well as described by the manufacturer’s instructions. Luminescence was measured on EnSight and EnVision (Perkin Elmer) plate readers and normalized to on-plate vehicle controls (0.5%–1% DMSO) in corresponding growth or differentiation medium. Experiments were conducted in technical triplicates and repeated in organoids from 3 different donors (donor demographics noted in Supplementary Table S1). Normalized viability was averaged at each concentration for each donor, and mean of donors was fit to a 4-Parameter Logistic (4PL) curve using Prism (GraphPad) to estimate the half-maximal inhibitory concentration (IC50) for each compound.
(§3) To compare toxicity responses of proliferative and differentiated organoids, proliferative organoids were grown 5–6 days in OGM prior to dosing, while differentiated organoids were transitioned to ODM for an additional 4 days prior to dosing (Figure 2A). Both proliferative and differentiated organoids were incubated with compounds or a 0.5%–1% DMSO vehicle control (as indicated) for 3 days prior to measuring ATP levels as a readout for cell viability. […] Compound-treated organoid ATP readouts were normalized to vehicle controls and a half-maximal inhibitory concentration (IC50) was calculated from dose-response curves of organoid viability for five compounds across 3 donor organoid lines.

[3] = Cell viability (Cell Titer Glo 3D, ATP) in differentiated organoid model; details: human, differentiated duodenum organoids
Experimental: as §1, §2, §3

[4] = tested on: differentiated duodenum organoids; test: as above; details: for IC50: Homo sapiens, read-out: IC50 (μM) Diff.
Experimental: as §1, §2, §3

[5] = clinical, cited from earlier work
[6] = ref Peters et al., 2019, 2020, Belair et al.
[7] = patients, ref Peters et al., 2019

| Structure (SMILES) | Cmax ([1]; high-dose oral administration, ref Nagelschmitz et al. (2014)) [µM] | decline in viability ([2]; 200 µM, proliferative organoids, 3 days) | IC50 [2] [µM] | decreases in viability ([2]; below 100 µM, proliferative organoids, 3 days) | IC50/Cmax Prolif. ([2]; human, 3 days) | cytotoxicity at 3 days, 200 µM [3] [%] | IC50 [4] [µM] | decreases in viability ([4]; below 100 µM, differentiated organoids, 3 days) | IC50/Cmax Diff. ([4]; human, 3 days) | Incidence of Diarrhea (%) ([5]; oral dosing, ref Rampal et al., 2001) | Incidence of Diarrhea (%) ([5]; oral dosing, ref Rampal et al., 2001, listed as Aspirin) | Cmax [1, 6] [µM] | Incidence of Diarrhea (%) [5, 7] [%] | fold increase in IC50, differentiated vs proliferative organoids ([4]; IC50 differentiated / IC50 proliferative) |
| --- | --- | --- | --- | --- | --- | --- | --- | --- | --- | --- | --- | --- | --- | --- |
| CC(=O)Oc1ccccc1C(=O)O [aspirin, Acetylsalicylic acid] | 26.9 | no decline | 1770 | minimal | 65.9 | ~25 | 626 | minimal | 23.3 | less than 2% | 1.8 | – | – | – |
| COc1cc2c(c(OC)c1OC)-c1ccc(OC)c(=O)cc1[C@@H](NC(C)=O)CC2 [colchicine] | – | – | – | – | – | – | – | – | – | – | – | 0.017 | – | – |
| CNC(=O)c1cc(Oc2ccc(NC(=O)Nc3ccc(Cl)c(C(F)(F)F)c3)cc2)ccn1 [sorafenib] | – | – | 10 | – | – | – | 8.42 | – | – | – | – | 6.2 | 43 | – |
| CN(C)C/C=C/C(=O)Nc1cc2c(Nc3ccc(F)c(Cl)c3)ncnc2cc1O[C@H]1CCOC1 [afatinib] | – | – | 0.036 | – | – | – | 4.16 | – | – | – | – | 0.078 | 96 | over 100 fold |
